Measurements: publication PMC12381781, “Structural and functional insights into the selective inhibition of mutant tau aggregation by purpurin and oleocanthal in frontotemporal dementia” (Protein Science : A Publication of the Protein Society, 2025)

How the values were obtained:
Type in all cases: biochemical
R2R3 (P301L) tau peptide = R2R3 (P301L) tau peptide (Homo sapiens, UniProt P10636, P618L); experiment: ThT aggregation assay of monomeric R2R3 (P301L) peptide; settings: for ThT-stained aggregates, confocal imaging: R2R3 P301L, end of ThT assay
Method: The aggregation kinetics of tau peptides were monitored using a ThT assay. A 40 μL reaction mixture containing 15 μM ThT (Sigma‐Aldrich, Cat. # T3516‐5G) and 50 μM peptide in the absence (control) or presence of 0.1 μM, 1 μM, and 10 μM PUR or OLC was prepared on ice in aggregation buffer (20 mM Tris [pH 7.4], 100 mM NaCl, 1 mM ethylenediaminetetraacetic acid [EDTA]) containing 5 μM heparin (Sigma‐Aldrich, Cat. #H4784). dithiothreitol (DTT) was excluded to avoid its differential effects on the aggregation kinetics of tau peptides containing Cys291 or Cys322 and to prevent peroxide generation by redox‐active compounds like PUR, which can lead to oxidative artifacts and false‐positive inhibition signals, as reported in our previous study (Annadurai, Malina, Salmona, et al., [2022]). This mixture was then dispensed into a clear‐bottom, black 384‐well ViewPlate (Revvity, Waltham, MA, United States; Part # 6007460) and sealed with a TopSealA‐PLUS (Revvity) to prevent evaporation.
Aggregation was monitored using EnSpire Multimode Plate Reader (Revvity) at 37°C with constant agitation (1000 rpm). To minimize condensation, the upper heater temperature was set to 2°C higher than the lower heater temperature. ThT fluorescence (ThT—λ ex: 460–490 nm and λem: 500–550 nm) was recorded every 5–10 min for 48 h.
ThT fluorescence curves were fitted to a sigmoidal function in GraphPad Prism (version 10, San Diego, CA, USA) using the following equation:
Y=Top/1+expV50–X/Slope , where Y is the ThT fluorescence intensity, X is time (h), Top is the maximum fluorescence intensity, V50 is the time to reach 50% of Top, and Slope describes the steepness of the aggregation transition. Baseline fluorescence at the start of the measurements was relatively low across samples and was not separately fitted. In samples showing early increases in fluorescence, the aggregation trajectory was modeled directly without introducing an independent baseline parameter.
The V50 value obtained from each replicate was used as the aggregation t 1/2 for statistical analysis.
To evaluate the effect of compounds on the extent of aggregation, the AUC was calculated for each replicate ThT fluorescence curve using GraphPad Prism. AUC values were then normalized to the mean AUC of the untreated control group and expressed as “aggregation (% of control),” serving as an indirect and comparative measure of fibril formation.
Figure S11. Confocal imaging of ThT-stained aggregates formed in the presence of PUR and OLC (corresponding to Figure 3). At the end of the ThT aggregation assay, reaction mixtures containing WT or mutant R2R3 tau peptides (P301L, V287I, N279K), incubated in the absence (CTL) or presence of 10 µM PUR or OLC, were collected from assay wells, embedded in 0.05% low-melting agarose, and imaged. ThT fluorescence was acquired using a Yokogawa Cell Voyager 7000S high-content imaging system equipped with a 20× objective (Ex: 460–490 nm, Em: 500–550 nm) and analyzed with Signals Image Artist (Revvity). […] Scale bar: 20 μm.

R2R3 (WT) tau peptide = biological target: T1, R2R3 (WT) tau peptide (Homo sapiens, UniProt P10636); experiment: Atomic force microscopy of R2R3 (WT) aggregates; settings: compound 10 μM, 48 h
T1 construct: Peptides spanning R2R3—including PHF6 and PHF6*; purchased ProteoGenix (Schiltigheim, France); host or cells: chemical synthesis (custom peptide)
Method: (§1) Aggregates collected after 48 h of aggregation were processed for AFM analysis as described previously (Annadurai, Malina, Malohlava, et al., [2022]).

R2R3 (V287I) tau peptide = R2R3 (V287I) tau peptide (Homo sapiens, UniProt P10636, V604I); experiment: Atomic force microscopy of R2R3 (V287I) aggregates; settings: compound 10 μM, 48 h
Method: as §1

R2R3 (N279K) tau peptide = R2R3 (N279K) tau peptide (Homo sapiens, UniProt P10636, N596K); experiment: Atomic force microscopy of R2R3 (N279K) aggregates; settings: compound 10 μM, 48 h
Method: as §1

[1] = biological target: T2, preformed R2R3 (WT) fibrils (Homo sapiens, UniProt P10636); experiment: Elongation of preformed R2R3 (WT) fibrils, ThT; settings: R2R3 WT pre-aggregated 24 h, compound 10 μM; for ThT-stained aggregates from post-treatment samples, confocal imaging: further 24 h
T2 construct: Peptides spanning R2R3—including PHF6 and PHF6*; purchased ProteoGenix (Schiltigheim, France); host or cells: chemical synthesis (custom peptide)
Method: (§2) Peptides were pre‐aggregated for 24 h with aggregation kinetics monitored by ThT fluorescence, after which 10 μM PUR or OLC was added, followed by an additional 24–30 h of incubation (Figure 4a). Aggregation kinetics was monitored by ThT fluorescence, and elongation was quantified as the AUC following compound addition, normalized to each replicate's maximum pre‐treatment fluorescence (Figure 4b). […] WT peptide fibril elongation was reduced to 15.5 ± 2.8% (PUR) and 45.2 ± 3.2% (OLC), and P301L peptide fibril elongation was limited to 31.8 ± 0.6% (PUR) and 85.6 ± 2.2% (OLC) (Figure 4b). Fluorescence microscopy imaging further confirmed the presence of reduced ThT‐positive aggregates following the addition of PUR and OLC (Figure S12). Similar inhibition trends, with PUR outperforming OLC, were also observed for V287I and N279K peptides (Figure S12).
(§3) FIGURE 4 Purpurin (PUR) and oleocanthal (OLC) inhibit elongation of preformed wild‐type (WT) and P301L tau fibrils. (a) The thioflavin T (ThT) fluorescence kinetics of pre‐aggregated R2R3 (WT and P301L) tau peptides treated with PUR or OLC (10 μM). Peptides were first allowed to aggregate for 24 h, followed by compound addition and continued incubation for an additional 24–30 h. Vertical dashed lines indicate the time point of compound addition. Curves are normalized to each replicate's maximum pre‐treatment ThT fluorescence. Source data are provided in the Data Availability Statement section. Mean ± SEM (n ≥ 3). (b) Aggregation levels post‐treatment, expressed as a percentage of control (untreated fibrils), calculated from the area under the curve after compound addition. Mean ± SEM (n ≥ 3). ***p < 0.001, **p < 0.01, one‐way ANOVA (Tukey's post hoc test).
(§4) Figure S12. Confocal imaging of ThT-stained aggregates from post-treatment samples in Figure 4. R2R3 (WT and P301L) tau peptides were incubated for 24 h to allow initial aggregation, followed by the addition of PUR or OLC (10 µM). After a further 24 h, reaction mixtures from compound-treated wells were collected, embedded in 0.05% low-melting agarose, and processed for imaging as described in Figure S11. […] Scale bar: 50 μm.

[2] = test system: preformed R2R3 (P301L) fibrils; experiment: Elongation of preformed R2R3 (P301L) fibrils, ThT; settings: R2R3 P301L pre-aggregated 24 h, compound 10 μM; for fibril elongation, aggregation post-treatment as percentage of control (AUC after compound addition): further 24–30 h; for ThT-stained aggregates from post-treatment samples, confocal imaging: further 24 h
Method: as §2, §3, §4

Chain of R2R3 (P301L) tau peptide (P10636 592-653 P618L): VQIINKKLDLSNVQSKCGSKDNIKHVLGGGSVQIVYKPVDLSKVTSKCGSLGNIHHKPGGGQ
T2 sequence (P10636 592-653 limits assumed): as the sequence (P10636 592-653 P618L) above, with L27P counted along it
T1 sequence (P10636 592-653 limits assumed): as the sequence (P10636 592-653 P618L) above, with L27P counted along it
Chain of R2R3 (V287I) tau peptide (P10636 592-653 V604I): as the sequence (P10636 592-653 P618L) above, with V13I, L27P counted along it
Chain of R2R3 (N279K) tau peptide (P10636 592-653 N596K): as the sequence (P10636 592-653 P618L) above, with N5K, L27P counted along it

SMILES | aggregation (% of control), AUC of ThT fluorescence (R2R3 (P301L) tau peptide; R2R3 P301L 50 μM, compound 0.1 μM) [%] | aggregation (% of control), AUC of ThT fluorescence (R2R3 (P301L) tau peptide; R2R3 P301L 50 μM, compound 10 μM) | ThT-stained aggregates, confocal imaging (R2R3 (P301L) tau peptide; compound 10 μM) | AFM morphology of aggregates (R2R3 (WT) tau peptide) | AFM morphology of aggregates (R2R3 (V287I) tau peptide) | AFM morphology of aggregates (R2R3 (N279K) tau peptide) | fibril elongation, aggregation post-treatment as percentage of control (AUC after compound addition) ([1]; further 24–30 h) [%] | ThT-stained aggregates from post-treatment samples, confocal imaging [1] | fibril elongation, aggregation post-treatment as percentage of control (AUC after compound addition) [2] [%] | ThT-stained aggregates from post-treatment samples, confocal imaging [2] | remaining activity at 0.1 µM (R2R3 (P301L) tau peptide; R2R3 P301L 50 μM, compound 0.1 μM, read-out: aggregation (% of control), AUC of ThT fluorescence) [%] | remaining activity at 10 µM (R2R3 (P301L) tau peptide; R2R3 P301L 50 μM, compound 10 μM, read-out: aggregation (% of control), AUC of ThT fluorescence) [%] | remaining activity at 10 µM ([1]; further 24–30 h, read-out: fibril elongation, aggregation post-treatment as percentage of control (AUC after compound addition)) [%]
C/C=C(/C=O)[C@@H](CC=O)CC(=O)OCCc1ccc(O)cc1 [OLC, oleocanthal] | 8 | below 10% | marked reduction in ThT signal | shorter, fragmented fibrils | no fibrillar or aggregated structures were detected | no fibrillar or aggregated structures were detected | 45.2 ± 3.2 | either a complete absence or a marked reduction in ThT signal | 85.6 ± 2.2 | either a complete absence or a marked reduction in ThT signal | – | – | –
O=C1c2ccccc2C(=O)c2c(O)c(O)cc(O)c21 [PUR, purpurin] | – | – | marked reduction in ThT signal | shorter, fragmented fibrils | no fibrillar or aggregated structures were detected | no fibrillar or aggregated structures were detected | – | either a complete absence or a marked reduction in ThT signal | 31.8 ± 0.6 | either a complete absence or a marked reduction in ThT signal | 47 | < 10 | 15.5 ± 2.8
